Blank lines part the entries; values can stand above or below the compound they belong to.
Legend:
[1] = target: T1, Ephrin type-B receptor 1 (Homo sapiens) (UniProt P54762); experiment: Selectivity interaction (KinomeScan (DiscoverX)) EUB0000655a EPHB1; conditions: at 10 µM
T1 sequence (whole entry): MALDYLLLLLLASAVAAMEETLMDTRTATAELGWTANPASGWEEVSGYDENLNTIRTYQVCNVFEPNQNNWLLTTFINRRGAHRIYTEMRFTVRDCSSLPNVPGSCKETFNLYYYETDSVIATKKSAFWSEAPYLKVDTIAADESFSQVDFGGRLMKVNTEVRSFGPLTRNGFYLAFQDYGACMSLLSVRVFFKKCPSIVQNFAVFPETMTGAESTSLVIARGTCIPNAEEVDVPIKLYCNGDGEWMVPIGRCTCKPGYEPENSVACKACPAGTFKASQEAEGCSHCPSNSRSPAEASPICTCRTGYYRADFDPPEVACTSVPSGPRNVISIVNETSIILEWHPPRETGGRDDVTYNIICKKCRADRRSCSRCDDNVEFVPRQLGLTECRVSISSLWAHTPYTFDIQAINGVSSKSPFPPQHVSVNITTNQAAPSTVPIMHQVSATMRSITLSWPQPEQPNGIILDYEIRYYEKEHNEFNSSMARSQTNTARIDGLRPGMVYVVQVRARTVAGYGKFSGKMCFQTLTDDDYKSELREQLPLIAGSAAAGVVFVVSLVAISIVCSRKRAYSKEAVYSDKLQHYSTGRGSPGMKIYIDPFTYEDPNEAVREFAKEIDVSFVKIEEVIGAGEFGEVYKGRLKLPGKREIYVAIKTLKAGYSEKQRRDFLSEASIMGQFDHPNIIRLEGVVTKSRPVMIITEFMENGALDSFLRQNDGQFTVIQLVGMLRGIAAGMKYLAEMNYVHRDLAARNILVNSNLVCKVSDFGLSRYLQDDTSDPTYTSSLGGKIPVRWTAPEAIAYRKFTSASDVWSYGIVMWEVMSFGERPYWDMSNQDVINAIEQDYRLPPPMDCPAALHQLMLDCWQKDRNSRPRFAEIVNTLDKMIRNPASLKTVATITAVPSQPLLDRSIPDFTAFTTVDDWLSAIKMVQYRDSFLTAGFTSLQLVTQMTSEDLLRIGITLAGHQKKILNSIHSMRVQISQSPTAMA

[2] = target: Eukaryotic translation initiation factor 2-alpha kinase 1 (Homo sapiens) (UniProt Q9BQI3); experiment: Selectivity interaction (KinomeScan (DiscoverX)) EUB0001079a EIF2AK1; conditions: at 1 µM
Eukaryotic translation initiation factor 2-alpha kinase 1 (Homo sapiens), sequence (Q9BQI3 whole entry): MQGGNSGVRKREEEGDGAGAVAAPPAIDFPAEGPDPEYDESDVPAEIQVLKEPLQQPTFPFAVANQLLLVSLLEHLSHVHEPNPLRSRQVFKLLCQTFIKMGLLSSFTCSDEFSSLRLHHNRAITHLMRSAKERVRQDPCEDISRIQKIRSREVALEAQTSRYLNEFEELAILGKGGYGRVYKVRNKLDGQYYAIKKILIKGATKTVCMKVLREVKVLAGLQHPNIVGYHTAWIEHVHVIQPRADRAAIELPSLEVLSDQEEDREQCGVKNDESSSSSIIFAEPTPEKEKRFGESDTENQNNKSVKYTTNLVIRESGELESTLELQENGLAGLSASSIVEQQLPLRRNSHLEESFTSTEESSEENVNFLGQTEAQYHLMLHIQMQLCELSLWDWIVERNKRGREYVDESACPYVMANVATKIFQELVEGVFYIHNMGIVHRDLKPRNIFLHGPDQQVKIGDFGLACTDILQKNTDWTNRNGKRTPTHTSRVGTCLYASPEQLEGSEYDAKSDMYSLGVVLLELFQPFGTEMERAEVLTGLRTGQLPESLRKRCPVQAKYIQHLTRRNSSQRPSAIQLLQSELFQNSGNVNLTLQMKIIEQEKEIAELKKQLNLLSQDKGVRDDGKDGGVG

[3] = target: Serine/threonine-protein kinase Chk2 (Homo sapiens) (UniProt O96017); experiment: Selectivity interaction (KinomeScan (DiscoverX)) EUB0000607a CHEK2; conditions: at 10 µM
Serine/threonine-protein kinase Chk2 (Homo sapiens), sequence (O96017 whole entry): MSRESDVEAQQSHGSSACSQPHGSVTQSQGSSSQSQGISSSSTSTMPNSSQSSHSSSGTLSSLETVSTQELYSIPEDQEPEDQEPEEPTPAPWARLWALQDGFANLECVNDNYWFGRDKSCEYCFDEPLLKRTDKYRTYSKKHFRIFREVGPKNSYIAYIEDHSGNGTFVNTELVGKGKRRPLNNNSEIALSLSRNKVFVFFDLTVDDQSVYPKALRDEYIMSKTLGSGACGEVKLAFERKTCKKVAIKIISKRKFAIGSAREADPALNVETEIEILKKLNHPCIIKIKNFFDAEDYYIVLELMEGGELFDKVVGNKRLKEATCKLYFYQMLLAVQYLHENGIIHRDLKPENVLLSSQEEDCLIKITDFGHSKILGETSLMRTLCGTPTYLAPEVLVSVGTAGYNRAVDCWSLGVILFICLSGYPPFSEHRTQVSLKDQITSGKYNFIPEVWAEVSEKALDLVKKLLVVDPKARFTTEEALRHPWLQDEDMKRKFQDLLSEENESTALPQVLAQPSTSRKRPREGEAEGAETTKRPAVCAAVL

[4] = target: Cyclin-dependent kinase 1/cyclin B (Homo sapiens) (UniProt P06493+P14635+Q8WWL7+O95067); experiment: Selectivity interaction (SelectScreen profiling (Invitrogen)) EUB0000607a CDK1; type: protein-complex assay; conditions: at 2 µM
[5] = target: T2, Serine/threonine-protein kinase 4 (Homo sapiens) (UniProt Q13043); experiment: Selectivity interaction (SelectScreen profiling (Invitrogen)) EUB0000607a STK4; conditions: at 2 µM
T2 sequence (whole entry): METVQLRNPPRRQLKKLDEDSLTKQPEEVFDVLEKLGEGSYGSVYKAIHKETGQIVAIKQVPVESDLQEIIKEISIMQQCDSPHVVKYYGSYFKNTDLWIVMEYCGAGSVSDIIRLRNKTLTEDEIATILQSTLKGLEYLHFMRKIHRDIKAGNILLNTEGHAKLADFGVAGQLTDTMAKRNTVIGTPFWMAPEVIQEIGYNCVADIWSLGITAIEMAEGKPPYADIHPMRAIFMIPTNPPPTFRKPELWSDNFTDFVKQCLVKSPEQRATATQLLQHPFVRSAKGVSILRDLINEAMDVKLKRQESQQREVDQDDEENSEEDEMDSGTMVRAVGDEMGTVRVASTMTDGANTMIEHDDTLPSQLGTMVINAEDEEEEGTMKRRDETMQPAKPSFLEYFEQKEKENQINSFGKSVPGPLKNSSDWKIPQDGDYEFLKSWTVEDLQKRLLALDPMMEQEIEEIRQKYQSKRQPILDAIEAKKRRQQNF

[6] = target: Cyclin-dependent kinase 8 (Homo sapiens, UniProt P49336); experiment: Selectivity interaction (Kinase panel (Invitrogen)) EUB0000639a CDK8; conditions: at 200 nM
Cyclin-dependent kinase 8, sequence (P49336 whole entry): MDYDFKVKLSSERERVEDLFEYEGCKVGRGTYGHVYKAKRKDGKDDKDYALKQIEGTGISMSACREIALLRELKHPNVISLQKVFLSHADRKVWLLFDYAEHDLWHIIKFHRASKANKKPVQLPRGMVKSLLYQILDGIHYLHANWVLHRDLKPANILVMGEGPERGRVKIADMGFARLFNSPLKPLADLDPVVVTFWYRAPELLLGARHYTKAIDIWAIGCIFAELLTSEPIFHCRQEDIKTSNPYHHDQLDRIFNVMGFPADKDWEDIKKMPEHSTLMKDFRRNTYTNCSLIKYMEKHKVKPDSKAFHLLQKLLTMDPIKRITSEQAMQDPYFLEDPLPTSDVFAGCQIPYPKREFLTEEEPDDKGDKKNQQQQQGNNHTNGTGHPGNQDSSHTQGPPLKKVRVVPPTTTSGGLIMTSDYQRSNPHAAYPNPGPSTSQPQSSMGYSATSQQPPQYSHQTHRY

[7] = target: T3, Serine/threonine-protein kinase LATS1 (Homo sapiens) (UniProt O95835); experiment: Selectivity interaction (ActivX KiNativ screen (kinase selectivity in THP-1 cell lysates)) EUB0000639a LATS1; type: subcellular; conditions: lysate
T3 sequence (whole entry): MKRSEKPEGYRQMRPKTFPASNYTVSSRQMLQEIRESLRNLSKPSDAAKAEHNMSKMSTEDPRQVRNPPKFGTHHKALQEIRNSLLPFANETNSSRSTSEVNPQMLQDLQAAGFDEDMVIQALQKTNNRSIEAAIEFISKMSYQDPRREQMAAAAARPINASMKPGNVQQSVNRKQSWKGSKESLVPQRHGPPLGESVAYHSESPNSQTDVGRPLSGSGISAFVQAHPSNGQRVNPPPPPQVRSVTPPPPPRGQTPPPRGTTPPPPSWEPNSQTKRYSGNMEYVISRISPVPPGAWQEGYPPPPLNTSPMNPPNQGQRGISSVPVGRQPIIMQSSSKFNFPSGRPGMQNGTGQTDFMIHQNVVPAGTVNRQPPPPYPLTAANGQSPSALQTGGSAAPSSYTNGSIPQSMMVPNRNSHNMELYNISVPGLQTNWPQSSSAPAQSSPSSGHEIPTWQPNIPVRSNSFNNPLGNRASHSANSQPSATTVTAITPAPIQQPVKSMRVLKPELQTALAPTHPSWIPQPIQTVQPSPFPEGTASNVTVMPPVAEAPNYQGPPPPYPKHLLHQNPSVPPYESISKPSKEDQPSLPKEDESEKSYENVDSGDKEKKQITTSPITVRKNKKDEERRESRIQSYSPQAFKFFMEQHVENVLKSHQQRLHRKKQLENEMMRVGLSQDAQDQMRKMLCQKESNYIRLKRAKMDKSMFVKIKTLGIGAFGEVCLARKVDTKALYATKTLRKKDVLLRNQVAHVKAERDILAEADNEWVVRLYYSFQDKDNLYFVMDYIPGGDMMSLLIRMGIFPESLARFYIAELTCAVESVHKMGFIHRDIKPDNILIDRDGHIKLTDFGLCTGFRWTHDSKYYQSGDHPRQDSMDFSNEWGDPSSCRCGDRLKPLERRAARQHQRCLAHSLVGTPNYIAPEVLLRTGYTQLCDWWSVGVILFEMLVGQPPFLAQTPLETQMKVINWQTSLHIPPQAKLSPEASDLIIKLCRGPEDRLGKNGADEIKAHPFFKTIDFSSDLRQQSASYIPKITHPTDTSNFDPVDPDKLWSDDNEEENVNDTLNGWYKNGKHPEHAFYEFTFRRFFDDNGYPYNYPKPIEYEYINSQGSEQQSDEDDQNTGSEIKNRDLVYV

Structure (SMILES): CN(C)CCOc1ccc(-c2nc(-c3ccncc3)c(-c3ccc4c(c3)CC/C4=N\O)[nH]2)cc1
% of control [1]: 100%

Structure (SMILES): Nc1cnc(N2CCc3cc(S(=O)(=O)Nc4c(F)cc(Cl)cc4F)cc(N4CCCC4=O)c32)nc1 [TP-020n]
% of control [2]: 94%

Structure (SMILES): CNC(=O)Nc1ccc(-c2nc(N3CC4CCC(C3)O4)c3cnn(C4CCC5(CC4)OCCO5)c3n2)cc1
% of control [3]: 84%
% of inhibition [4]: 6%
% of inhibition [5]: 12%

% of inhibition [6]: 40.1%
% of inhibition ([7]; at 0.01 µM): -5.5%
% of inhibition ([7]; at 0.04 µM): -23.7%
% of inhibition ([7]; at 0.2 µM): -87.3%
% of inhibition ([7]; at 1 µM): -76.3%
% of inhibition ([7]; at 5 µM): -29.4%
Structure (SMILES): CC[C@@H]1[C@H](F)C(=O)N[C@@H]1COc1nccc2cc(C(N)=O)c(OC)cc12 [ZIMLOVISERTIB]

Reference: ChEMBL document CHEMBL5465560, “Selectivity Literature for EUbOPEN Chemogenomic Library” (2024)
